20 compounds from patent US10125134B2 (Mirati Therapeutics, Inc., priority 2016, dated 2018) can be followed below.

Assay [1] addresses KRas G12C (Homo sapiens, UniProt P01116, C118S/C51S/C80L/G12C). In words: KRas G12C Modification Assay (LCMS detection of covalent adduct). The settings on record: normalized percent of control; tested at 5 μM concentration for 3 hours. In kind it is binding. In outline: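 Covalent modification was read by reverse-phase LC/MS of intact protein after compound exposure, each reaction stopped at its time point with 25 mM acetic acid. Unmodified-protein signal, taken as percent of total, was normalised to untreated protein and reported as POC.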

For assay [2], the system named is NCI-H358 cells (express KRas G12C), Phospho-ERK. In words: Cellular inhibition of KRas G12C: Phospho-ERK in NCI-H358 cells. Type of assay: cell-based. The settings on record: pERK(Thr202/Tyr204) normalized with GAPDH, NCI-H358 cells, 3 hours, read-out: IC50. In outline:
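IC50 derived by 4-parameter fit of GAPDH-normalized pERK(Thr202/Tyr204) signal, as percent of DMSO control. Signal came from in-cell immunodetection with infrared secondaries after 3 h compound exposure of KRas G12C NCI-H358 cells at 0.5% DMSO.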

Where two headings read alike, the source gives them in different places.

In the case of `C=CC(=O)N1CCN(c2nc(OC[C@@H]3CCCN3CC)nc3c2CCN(c2cccc4ccccc24)C3)C[C@@H]1CC#N` [Example 399, 2-((S)-1-acryloyl-4-(2-(((S)-1-ethylpyrrolidin-2-yl)methoxy)-7-(naphthalen-1-yl)-5,6,7,8-tetrahydropyrido[3,4-d]pyrimidin-4-yl)piperazin-2-yl)acetonitrile], the POC entry in assay [1] is on record as “C (“C”>50% POC)”. The IC50 in assay [2] (Homo sapiens, NCI-H358, 3 h) is 0.0001 to 1 µM.
Consider `CCN1CCC[C@H]1COc1nc2c(c(N3CCN(C(=O)/C=C/CN(C)C)[C@@H](CC#N)C3)n1)CCN(c1cccc3ccccc13)C2` [Example 400, 2-((S)-1-((E)-4-(dimethylamino)but-2-enoyl)-4-(2-(((S)-1-ethylpyrrolidin-2-yl)methoxy)-7-(naphthalen-1-yl)-5,6,7,8-tetrahydropyrido[3,4-d]pyrimidin-4-yl)piperazin-2-yl)acetonitrile], for which the POC entry in assay [1] is on record as “C (“C”>50% POC)”. Moreover, the IC50 in assay [2] (Homo sapiens, NCI-H358, 3 h) lay within 0.0001 to 1 µM.
On to `C=CC(=O)N1CCN(c2nc(OC[C@@H]3CCCN3CC(=O)N(C)C)nc3c2CCN(c2cccc4ccccc24)C3)C[C@@H]1CC#N` [Example 401, 2-((S)-2-(((4-((S)-4-acryloyl-3-(cyanomethyl)piperazin-1-yl)-7-(naphthalen-1-yl)-5,6,7,8-tetrahydropyrido[3,4-d]pyrimidin-2-yl)oxy)methyl)pyrrolidin-1-yl)-N,N-dimethylacetamide], for which the POC result in assay [1] was “C (“C”>50% POC)”. Moreover, in assay [2] (Homo sapiens, NCI-H358, 3 h), the IC50 lay in the range of 0.0001 to 1 µM.
In the case of `C=CC(=O)N1CCN(c2nc(N3CC[C@H](N(C)C)C3)nc3c2CCN(c2cccc4ccccc24)C3)C[C@@H]1CC#N` [Example 402], the POC entry in assay [1] is “C (“C”>50% POC)”. In assay [2] (Homo sapiens, NCI-H358, 3 h), the 50% inhibitory concentration (IC50) lay within 0.0001 to 1 µM.
The like results for `Cc1cccc(N2CCc3c(nc(OC[C@@H]4CCCN4C)nc3N3CCN(C(=O)/C=C/CN(C)C)[C@@H](CC#N)C3)C2)c1C` [Example 403, 2-((S)-1-((E)-4-(dimethylamino)but-2-enoyl)-4-(7-(2,3-dimethylphenyl)-2-(((S)-1-methylpyrrolidin-2-yl)methoxy)-5,6,7,8-tetrahydropyrido[3,4-d]pyrimidin-4-yl)piperazin-2-yl)acetonitrile] were, in that order, “C (“C”>50% POC)” and 0.0001 to 1 µM.
The like results for `C=CC(=O)N1CCN(c2nc(N3CCCC(N(C)C)C3)nc3c2CCN(c2cccc4ccccc24)C3)C[C@@H]1CC#N` (stereo partly drawn) [Example 404, 2-((2S)-1-acryloyl-4-(2-(3-(dimethylamino)piperidin-1-yl)-7-(naphthalen-1-yl)-5,6,7,8-tetrahydropyrido[3,4-d]pyrimidin-4-yl)piperazin-2-yl)acetonitrile] were, in that order, “C (“C”>50% POC)” and 0.0001 to 1 µM.
The matching figures for `C=CC(=O)N1CCN(c2nc(OC[C@@H]3CCCN3C)nc3c2CCN(c2cccc(F)c2Cl)C3)C[C@@H]1CC#N` [Example 405, 2-((S)-1-acryloyl-4-(7-(2-chloro-3-fluorophenyl)-2-(((S)-1-methylpyrrolidin-2-yl)methoxy)-5,6,7,8-tetrahydropyrido[3,4-d]pyrimidin-4-yl)piperazin-2-yl)acetonitrile]: “C (“C”>50% POC)” and 0.0001 to 1 µM.
As for `C=CC(=O)N1CCN(c2nc(OC[C@@H]3CCCN3C)nc3c2CCN(c2cccc(F)c2F)C3)C[C@@H]1CC#N` [Example 406, 2-((S)-1-acryloyl-4-(7-(2,3-difluorophenyl)-2-(((S)-1-methylpyrrolidin-2-yl)methoxy)-5,6,7,8-tetrahydropyrido[3,4-d]pyrimidin-4-yl)piperazin-2-yl)acetonitrile], in assay [1], the POC result is listed as “C (“C”>50% POC)”. The IC50 in assay [2] (Homo sapiens, NCI-H358, 3 h) was more than 1 µM.
The like results for `C=CC(=O)N1CCN(c2nc(NC[C@@H]3CCCN3C)nc3c2CCN(c2cccc4ccccc24)C3)C[C@@H]1CC#N` [Example 407, 2-((S)-1-acryloyl-4-(2-((((S)-1-methylpyrrolidin-2-yl)methyl)amino)-7-(naphthalen-1-yl)-5,6,7,8-tetrahydropyrido[3,4-d]pyrimidin-4-yl)piperazin-2-yl)acetonitrile] were, in that order, “C (“C”>50% POC)” and more than 1 µM.
The like results for `C=CC(=O)N1CCN(c2nc(OCCN3CCCCC3)nc3c2CCN(c2cccc4ccccc24)C3)C[C@@H]1CC#N` [Example 408, (S)-2-(1-acryloyl-4-(7-(naphthalen-1-yl)-2-(2-(piperidin-1-yl)ethoxy)-5,6,7,8-tetrahydropyrido[3,4-d]pyrimidin-4-yl)piperazin-2-yl)acetonitrile] were, in that order, “C (“C”>50% POC)” and 0.0001 to 1 µM.
The like results for `C=CC(=O)N1CCN(c2nc(OC[C@@H]3CCN(C)C3)nc3c2CCN(c2cccc4ccccc24)C3)C[C@@H]1CC#N` [Example 409, 2-((S)-1-acryloyl-4-(2-(((R)-1-methylpyrrolidin-3-yl)methoxy)-7-(naphthalen-1-yl)-5,6,7,8-tetrahydropyrido[3,4-d]pyrimidin-4-yl)piperazin-2-yl)acetonitrile] were, in that order, “C (“C”>50% POC)” and 0.0001 to 1 µM.
For the compound `C=CC(=O)N1CCN(c2nc(OC[C@@H]3CCCN3C)nc3c2CCN(c2cccc(F)c2C)C3)CC1CC#N` (stereo partly drawn) [Example 410, 2-(1-acryloyl-4-(7-(3-fluoro-2-methylphenyl)-2-(((S)-1-methylpyrrolidin-2-yl)methoxy)-5,6,7,8-tetrahydropyrido[3,4-d]pyrimidin-4-yl)piperazin-2-yl)acetonitrile], the POC result in assay [1] is “C (“C”>50% POC)”. Besides, in assay [2] (Homo sapiens, NCI-H358, 3 h), the IC50 lay in the range of 0.0001 to 1 µM.
As for `C=CC(=O)N1CCN(c2nc(OC[C@@H]3CCCN3C)nc3c2CCN(c2c(F)cccc2C(F)(F)F)C3)CC1CC#N` (stereo partly drawn) [Example 411, 2-(1-acryloyl-4-(7-(2-fluoro-6-(trifluoromethyl)phenyl)-2-(((S)-1-methylpyrrolidin-2-yl)methoxy)-5,6,7,8-tetrahydropyrido[3,4-d]pyrimidin-4-yl)piperazin-2-yl)acetonitrile], in assay [1], the POC result is listed as “C (“C”>50% POC)”. Besides, in assay [2], the half-maximal inhibitory concentration (IC50) lay within 0.0001 to 1 µM.
The matching figures for `C=CC(=O)N1CCN(c2nc(OC[C@@H]3CCCN3C)nc3c2CCN(c2ccc(F)cc2C(F)(F)F)C3)CC1CC#N` (stereo partly drawn) [Example 412, 2-(1-acryloyl-4-(7-(4-fluoro-2-(trifluoromethyl)phenyl)-2-(((S)-1-methylpyrrolidin-2-yl)methoxy)-5,6,7,8-tetrahydropyrido[3,4-d]pyrimidin-4-yl)piperazin-2-yl)acetonitrile]: “C (“C”>50% POC)” and 0.0001 to 1 µM.
The like results for `C=CC(=O)N1CCN(c2nc(OC[C@@H]3CCCN3C)nc3c2CCN(c2cccc(Cl)c2C(F)(F)F)C3)CC1CC#N` (stereo partly drawn) [Example 413, 2-(1-acryloyl-4-(7-(3-chloro-2-(trifluoromethyl)phenyl)-2-(((S)-1-methylpyrrolidin-2-yl)methoxy)-5,6,7,8-tetrahydropyrido[3,4-d]pyrimidin-4-yl)piperazin-2-yl)acetonitrile] were, in that order, “C (“C”>50% POC)” and 0.0001 to 1 µM.
As for `C=CC(=O)N1CCN(c2nc(OC[C@H]3C[C@H](O)CN3C)nc3c2CCN(c2cccc(F)c2C(F)(F)F)C3)CC1CC#N` (stereo partly drawn) [Example 414, 2-(1-acryloyl-4-(7-(3-fluoro-2-(trifluoromethyl)phenyl)-2-(((2R,4S)-4-hydroxy-1-methylpyrrolidin-2-yl)methoxy)-5,6,7,8-tetrahydropyrido[3,4-d]pyrimidin-4-yl)piperazin-2-yl)acetonitrile], the POC entry in assay [1] is listed as “C (“C”>50% POC)”. The IC50 in assay [2] (Homo sapiens, NCI-H358, 3 h) was in the range of 0.0001 to 1 µM.
The like results for `C=CC(=O)N1CCN(c2nc(OC[C@H]3C[C@@H](O)CN3C)nc3c2CCN(c2cccc(F)c2C(F)(F)F)C3)CC1CC#N` (stereo partly drawn) [Example 415, 2-(1-acryloyl-4-(7-(3-fluoro-2-(trifluoromethyl)phenyl)-2-(((2R,4R)-4-hydroxy-1-methylpyrrolidin-2-yl)methoxy)-5,6,7,8-tetrahydropyrido[3,4-d]pyrimidin-4-yl)piperazin-2-yl)acetonitrile] were, in that order, “C (“C”>50% POC)” and 0.0001 to 1 µM.
The like results for `C=CC(=O)N1CCN(c2nc(OC[C@H]3C[C@H](F)CN3C)nc3c2CCN(c2cccc(F)c2C(F)(F)F)C3)CC1CC#N` (stereo partly drawn) [Example 416, 2-(1-acryloyl-4-(2-(((2R,4S)-4-fluoro-1-methylpyrrolidin-2-yl)methoxy)-7-(3-fluoro-2-(trifluoromethyl)phenyl)-5,6,7,8-tetrahydropyrido[3,4-d]pyrimidin-4-yl)piperazin-2-yl)acetonitrile] were, in that order, “C (“C”>50% POC)” and 0.0001 to 1 µM.
For the compound `C=CC(=O)N1CCN(c2nc(OC[C@@]3(C)CCCN3C)nc3c2CCN(c2cccc(F)c2C(F)(F)F)C3)CC1CC#N` (stereo partly drawn) [Example 417, 2-(1-acryloyl-4-(2-(((R)-1,2-dimethylpyrrolidin-2-yl)methoxy)-7-(3-fluoro-2-(trifluoromethyl)phenyl)-5,6,7,8-tetrahydropyrido[3,4-d]pyrimidin-4-yl)piperazin-2-yl)acetonitrile], the POC entry in assay [1] is listed as “C (“C”>50% POC)”. Besides, the IC50 in assay [2] (Homo sapiens) fell in the range of 0.0001 to 1 µM.
As to `C=CC(=O)N1CCN(c2nc(OC[C@@H]3C[C@H](O)CN3C)nc3c2CCN(c2cccc4ccccc24)C3)CC1CC#N` (stereo partly drawn) [Example 418, 2-(1-acryloyl-4-(2-(((2S,4S)-4-hydroxy-1-methylpyrrolidin-2-yl)methoxy)-7-(naphthalen-1-yl)-5,6,7,8-tetrahydropyrido[3,4-d]pyrimidin-4-yl)piperazin-2-yl)acetonitrile], the POC entry in assay [1] is given as “C (“C”>50% POC)”. For the same compound, in assay [2] (Homo sapiens, NCI-H358, 3 h), the IC50 was 0.0001 to 1 µM.
